Where two headings read alike, the source gives them in different places.
Columns and labels:
[1] = target: T1, TLR7 (Mus musculus, UniProt P58681); test: In vivo TLR7 knockdown (JB6011 agonist challenge); set-up: species or system mice; settings: for ED50: translated for a 25 gram mouse
T1 construct: endogenous in cells
T1 sequence (P58681 27-1050): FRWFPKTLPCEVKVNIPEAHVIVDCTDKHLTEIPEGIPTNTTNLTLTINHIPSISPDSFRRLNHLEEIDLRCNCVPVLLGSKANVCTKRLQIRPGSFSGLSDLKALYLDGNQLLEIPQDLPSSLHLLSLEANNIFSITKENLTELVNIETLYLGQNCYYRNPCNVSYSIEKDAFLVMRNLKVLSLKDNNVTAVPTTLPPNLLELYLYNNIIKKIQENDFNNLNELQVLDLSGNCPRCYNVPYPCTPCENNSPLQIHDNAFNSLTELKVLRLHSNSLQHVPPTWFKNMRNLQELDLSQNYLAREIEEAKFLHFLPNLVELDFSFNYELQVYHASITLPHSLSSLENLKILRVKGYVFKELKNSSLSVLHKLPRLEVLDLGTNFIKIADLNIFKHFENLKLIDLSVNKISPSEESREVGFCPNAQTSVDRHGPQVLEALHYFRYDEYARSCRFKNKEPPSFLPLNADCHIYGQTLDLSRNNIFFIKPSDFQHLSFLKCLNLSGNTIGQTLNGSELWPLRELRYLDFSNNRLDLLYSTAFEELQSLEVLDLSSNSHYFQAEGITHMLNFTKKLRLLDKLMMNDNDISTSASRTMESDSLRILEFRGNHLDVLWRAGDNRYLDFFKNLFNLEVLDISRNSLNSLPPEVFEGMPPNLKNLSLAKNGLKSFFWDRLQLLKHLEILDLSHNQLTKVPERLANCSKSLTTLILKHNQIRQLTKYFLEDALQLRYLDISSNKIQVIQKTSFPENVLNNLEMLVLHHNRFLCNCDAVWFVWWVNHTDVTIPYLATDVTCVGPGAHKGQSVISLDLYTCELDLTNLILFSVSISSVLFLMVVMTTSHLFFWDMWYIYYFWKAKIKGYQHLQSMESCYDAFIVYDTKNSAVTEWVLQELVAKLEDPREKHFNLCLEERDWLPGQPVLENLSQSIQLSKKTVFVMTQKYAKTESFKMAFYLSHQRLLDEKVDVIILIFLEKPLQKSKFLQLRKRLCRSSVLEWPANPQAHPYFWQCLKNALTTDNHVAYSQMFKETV
Description: Mice were treated with test antagonist at varying doses at T=0 hr. Agonist treatment (CpG-DNA) dosed one hour later, T=1 hr for IP groups and two hours later, T=2 hr for PO groups. Necropsy performed 3 hours post agonist treatment, T=4 hr (IP groups) or T=5 hr (PO groups). Serum cytokines induced by the TLR agonist are measured by ELISA. Groups size per dose, n=3. The mean+/−SD of two independent ELISA's at differing serum dilutions is plotted.
JB6121 was also tested in vivo for TLR7 knockdown activity utilizing the TLR7 small molecule agonist JB6011 as the agonist challenge. […] This roughly translates to a 3.92 mg/kg IP dose and 11.44 mg/kg PO dose for a 25 gram mouse.

[2] = target: COMT (catechol-O-methyl transferase) (Sus scrofa, UniProt D3K5L3); test: Receptor cross-reactivity enzyme panel (CEREP); format: biochemical; settings: read-out: % Ligand Inhibition, COMT
Sequence of COMT (catechol-O-methyl transferase) (D3K5L3 entry or part of it): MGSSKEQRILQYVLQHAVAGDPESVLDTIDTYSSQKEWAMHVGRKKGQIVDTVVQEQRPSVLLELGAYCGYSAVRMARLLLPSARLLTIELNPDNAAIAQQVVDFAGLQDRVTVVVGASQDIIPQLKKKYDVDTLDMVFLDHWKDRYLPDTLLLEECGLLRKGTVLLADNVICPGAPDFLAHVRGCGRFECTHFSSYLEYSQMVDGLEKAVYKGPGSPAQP
Source text: The receptor cross-reactivity profile is composed of 71 binding and 27 enzyme assays. The binding assay panel is broadly defined with roughly an equal number of selective, central and peripheral therapeutically relevant targets. The enzyme assay panel includes the most representative targets from diverse enzyme families with a particular focus on phosphatases and specific enzymes involved in cell cycle regulation. Assays where performed by CEREP, Seattle, Wash., with protocols similar to Cordeaux, Y. et al., 2004 Brit. J. Pharmacol., 143:705-714. JB6121 was tested for receptor cross reactivity at 10 μM for approximately 100 receptors and enzymes. Any % inhibition greater than 50% (IC50<10 μM) is highlighted below in Table 7.

[3] = 7-day non-GLP tox study, once daily oral gavage; format: in vivo, rats; settings: for no-observed-effect level (NOEL): rats, 7 days oral
Description: A 7-day non-GLP tox study was performed in rats. Dosing was once daily by oral gavage. There were four dose groups; 0, 10, 30 and 100 mg/kg. The following parameters and end points were evaluated in this study: clinical signs, body weights, body weight changes, food consumption, clinical pathology parameters (hematology, coagulation, clinical chemistry, and urinalysis), toxicokinetic parameters, gross necropsy findings, organ weights, and histopathologic examinations.

CN1CCN(c2nc(NCCN3CCOCC3)c3nc(Cl)c(NCCN4CCOCC4)nc3n2)CC1 [JB6121, 6-chloro-2-(4-methylpiperazin-1-yl)-N^4,N^7-bis(2-morpholinoethyl)pteridine-4,7-diamine]
ED50 ([1]; 4 h, IP, read-out: ID50, TLR7 knockdown, IP dose): ~3.92 mg/kg | ED50 ([1]; 5 h, PO, read-out: ID50, TLR7 knockdown, PO dose): ~11.4 mg/kg | ID50, TLR7 knockdown, IP injection ([1]; mice, IP, JB6011 challenge): 98.34 μg injection dose | ID50, TLR7 knockdown, PO gavage ([1]; mice, PO, JB6011 challenge): 286 μg delivery dose | inhibition at 10 µM [2]: 53.5% | NOAEL at 7 days ([3]; both sexes, rat, in vivo, po): 100 mg/kg/day | hematopoiesis (spleen) ([3]; rat, in vivo, 30 mg/kg/day): increased incidence of hematopoiesis | increase of mean spleen weights ([3]; rat, in vivo, 30 mg/kg/day): at least 10% | hematopoiesis in the liver ([3]; rat, in vivo, 100 mg/kg/day): slight increase in hematopoiesis | no-observed-effect level (NOEL) ([3]; females): 100 mg/kg/day | no-observed-effect level (NOEL) ([3]; males): 10 mg/kg/day

Reference: patent US20170275287A1, “NOVEL N2, N4, N7, 6-TETRASUBSTITUTED PTERIDINE-2,4,7-TRIAMINE AND 2, 4, 6, 7-TETRASUBSTITUTED PTERIDINE COMPOUNDS AND METHODS OF SYNTHESIS AND USE THEREOF” (Janus Biotherapeutics, Inc., priority 2014, published 2017)
